Measurements published in patent US20250171451A1, “NOVEL HETEROCYCLIC COMPOUND AND PHARMACEUTICAL COMPOSITION COMPRISING SAME” (Samjin Pharmaceutical Co., Ltd., priority 2022, published 2025).

Columns and labels:
[1] = tested on: TEAD response element (TRE) luciferase reporter in MCF-7 cell lines; assay: TEAD response element (TRE) reporter assay; format: cell-based; settings: 0.2 μM compound, 24 hours, MCF-7 TEAD reporter cells, relative to vehicle (1% DMSO); for inhibition at 0.2 µM: Homo sapiens, MCF7
Method: MCF-7 cell lines injected with TEAD reporter genes expressing firefly luciferase upon activation of TEAD response element (TRE) were obtained from BPS bioscience (#60618). The TEAD reporter genes were injected to stable expression in the MCF-7 cell lines.
TEAD reporter genes expressing firefly luciferase upon activation of TEAD response element (TRE) were injected with TEAD reporter genes to ensure stable expression of the TEAD reporter genes. Here, the TEAD reporter genes expresses firefly luciferase upon activation of TEAD response element (TRE). The cells were cultured in a cell-only culture medium (BPS bioscience) to which 10 μg/mL insulin (Sigma) was added at 37° C. and 5% CO2.
In 24 hours after dispensing said cells into a 96-well plate, each of the compounds of the examples or a vehicle solvent (final 1% DMSO) was treated by being diluted with a serum-free culture medium so that the final concentration became 0.2 μM. In 24 hours after said treatment, a luciferase assay working solution (ONE-Step Luciferase assay reagent; BPS bioscience) containing a luciferase substrate was treated in each well at 100 μL, and then left in a shaker for 15 minutes to be well mixed. Then, a degree of luminescence generated by luciferase expressed according to TEAD activation was measured by a microplate reader (TECAN). A relative activity of luciferase […], and the results are shown in table 8 below.

[2] = target: T1, recombinant GST-TEAD1 proteins (209 to 426 a.a.) (Homo sapiens, UniProt P28347); assay: Evaluation of palmitoylation of TEAD protein; format: biochemical; settings: 5 μM compound, 15 minutes preincubation, 3 μM alkyne palmitoyl-CoA 30 minutes, pH 6.4, vs DMSO control
T1 construct: recombinant GST-TEAD1 proteins (209 to 426 a.a.)
T1 sequence (P28347 209-426): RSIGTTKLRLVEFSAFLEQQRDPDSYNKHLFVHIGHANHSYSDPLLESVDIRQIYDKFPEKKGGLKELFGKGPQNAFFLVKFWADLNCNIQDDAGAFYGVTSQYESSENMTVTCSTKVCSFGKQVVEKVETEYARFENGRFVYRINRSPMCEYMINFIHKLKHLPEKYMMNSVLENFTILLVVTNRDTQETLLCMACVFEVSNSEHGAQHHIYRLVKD
Method: Each compound corresponding to a concentration of 5 μM was added to recombinant GST-TEAD1 proteins (209 to 426 a.a.) and cultured for 15 minutes. For an autopalmitoylation reaction of proteins after culturing, 3 μM alkyne palmitoyl-CoA (Cayman chemical) and 50 mM MES buffer (pH 6.4) were added and cultured for 30 minutes, after which 1% of sodium dodecyl sulfate (SDS) was added to stop the reaction. After that, biotinylation was performed through a CLICK (Click chemistry tools) reaction, and then a protein solution was concentrated to prepare a sample.
Analysis of the sample was performed using SDS-PAGE and streptavidin HRP (Thermo scientific). The resulting values were quantified using an Image J (NIH). For the intensity of the band obtained from Streptavidin blot, a palmitoylation inhibitory activity was analyzed based on the control group (DMSO). The normalization of each sample was performed using an anti-GST (91G1) (cell signaling) antibody.

Compound: C=CC(=O)Nc1ncc2c(cnn2Cc2ccc(C(F)(F)F)cc2)n1 [Compound 22, N-(1-(4-(trifluoromethyl)benzyl)-1H-pyrazolo[4,3-d]pyrimidin-5-yl)acrylamide]
- inhibition at 0.2 µM [1]: < 30%
- inhibition at 5 µM [2]: < 40%

Compound: C=CC(=O)Nc1cnc2c(c1)c(C)cn2-c1ccc(OC(F)(F)F)cc1 [Compound 58, N-(3-methyl-1-(4-(trifluoromethoxy)phenyl)-1H-pyrrolo[2,3-b]pyridin-5-yl)acrylamide]
- inhibition at 0.2 µM [1]: < 30%
- inhibition at 5 µM [2]: > 80%

Compound: C=CC(=O)Nc1ccc2cnn(-c3ccc(C(F)(F)F)cc3)c2c1 [Compound 34, N-(1-(4-(trifluoromethyl)phenyl)-1H-indazol-6-yl)acrylamide]
- inhibition at 0.2 µM [1]: 30 to 50%
- inhibition at 5 µM [2]: 40 to 80%

Compound: C=CC(=O)Nc1ncc2cnn(Cc3ccc(C(F)(F)F)cc3)c2n1 [Compound 19, N-(1-(4-(trifluoromethyl)benzyl)-1H-pyrazolo[3,4-d]pyrimidin-6-yl)acrylamide]
- inhibition at 0.2 µM [1]: < 30%
- inhibition at 5 µM [2]: < 40%

Compound: C=CC(=O)Nc1cnc2c(c1)c(C)cn2C(=O)c1ccc(C(F)(F)F)cc1 [Compound 24, N-(3-methyl-1-(4-(trifluoromethyl)benzoyl)-1H-pyrrolo[2,3-b]pyridin-5-yl)acrylamide]
- inhibition at 0.2 µM [1]: < 30%
- inhibition at 5 µM [2]: > 80%

Compound: C=CC(=O)Nc1cnc2c(c1)c(C)cn2-c1ccc(C(F)(F)F)c(OC)c1 [Compound 59, N-(1-(3-methoxy-4-(trifluoromethyl)phenyl)-3-methyl-1H-pyrrolo[2,3-b]pyridin-5-yl)acrylamide]
- inhibition at 0.2 µM [1]: 30 to 50%
- inhibition at 5 µM [2]: > 80%

Compound: C=CC(=O)Nc1cnc2c(c1)c(C)nn2-c1ccc(OC(F)(F)F)nc1 [Compound 103, N-(3-methyl-1-(6-(trifluoromethoxy)pyridin-3-yl)-1H-pyrazolo[3,4-b]pyridin-5-yl)acrylamide]
- inhibition at 0.2 µM [1]: > 50%
- inhibition at 5 µM [2]: 40 to 80%

Compound: C=CC(=O)Nc1cnc2c(c1)c(C)nn2-c1cc(OC)cc(OC)c1 [Compound 84, N-(1-(3,5-dimethoxyphenyl)-3-methyl-1H-pyrazolo[3,4-b]pyridin-5-yl)acrylamide]
- inhibition at 0.2 µM [1]: < 30%
- inhibition at 5 µM [2]: < 40%

Compound: C=CC(=O)Nc1cnc2c(c1)c(C)cn2Cc1ccc(C(F)F)cc1 [Compound 71, N-(1-(4-(difluoromethyl)benzyl)-3-methyl-1H-pyrrolo[2,3-b]pyridin-5-yl)acrylamide]
- inhibition at 0.2 µM [1]: 30 to 50%
- inhibition at 5 µM [2]: < 40%

Compound: C=CC(=O)Nc1cnc2c(c1)c(C)nn2-c1ccccc1Br [Compound 83, N-(1-(2-bromophenyl)-3-methyl-1H-pyrazolo[3,4-b]pyridin-5-yl)acrylamide]
- inhibition at 0.2 µM [1]: < 30%
- inhibition at 5 µM [2]: < 40%

Compound: C=CC(=O)Nc1cnc2c(c1)c(C)nn2Cc1ccc(C(F)(F)F)c(OC)c1 [Compound 61, N-(1-(3-methoxy-4-(trifluoromethyl)benzyl)-3-methyl-1H-pyrazolo[3,4-b]pyridin-5-yl)acrylamide]
- inhibition at 0.2 µM [1]: > 50%
- inhibition at 5 µM [2]: < 40%

Compound: N-(1-(4-(trifluoromethyl)benzyl)-1H-pyrazolo[3,4-b]pyridin-5-yl)acrylamide [Compound 5]
- % of inhibition of TRE luciferase at 0.2 μM [1]: A (>50% inhibition)
- % of inhibition of TEAD1 palmitoylation at 5 μM [2]: A (>80% inhibition)

Compound: C=CC(=O)N(C)c1cnc2c(c1)c(C)nn2-c1ccc(Cl)cc1 [Compound 91, N-(1-(4-chlorophenyl)-3-methyl-1H-pyrazolo[3,4-b]pyridin-5-yl)-N-methylacrylamide]
- inhibition at 0.2 µM [1]: > 50%
- inhibition at 5 µM [2]: > 80%

Compound: C=CC(=O)Nc1cnc2c(c1)c(C)nn2-c1ccccc1C(F)(F)F [Compound 82, N-(3-methyl-1-(2-(trifluoromethyl)phenyl)-1H-pyrazolo[3,4-b]pyridin-5-yl)acrylamide]
- inhibition at 0.2 µM [1]: < 30%
- inhibition at 5 µM [2]: < 40%

Compound: C=CC(=O)Nc1cnc2c(c1)c(C)nn2Cc1ccc(OC(F)(F)F)cc1 [Compound 49, N-(3-methyl-1-(4-(trifluoromethoxy)benzyl)-1H-pyrazolo[3,4-b]pyridin-5-yl)acrylamide]
- inhibition at 0.2 µM [1]: < 30%
- inhibition at 5 µM [2]: 40 to 80%

Compound: C=CC(=O)Nc1cnc2c(c1)c(C)cn2-c1ccc(C(C)C)cc1 [Compound 47, N-(1-(4-isopropylphenyl)-3-methyl-1H-pyrrolo[2,3-b]pyridin-5-yl)acrylamide]
- inhibition at 0.2 µM [1]: 30 to 50%
- inhibition at 5 µM [2]: > 80%

Compound: C=CC(=O)Nc1cnc2c(c1)c(C)nn2-c1cccc(OC)c1 [Compound 73, N-(1-(3-methoxyphenyl)-3-methyl-1H-pyrazolo[3,4-b]pyridin-5-yl)acrylamide]
- inhibition at 0.2 µM [1]: < 30%
- inhibition at 5 µM [2]: < 40%

Compound: C=CC(=O)Nc1cnc2c(n1)c(C)cn2Cc1ccc(C(F)(F)F)cc1 [Compound 28, N-(7-methyl-5-(4-(trifluoromethyl)benzyl)-5H-pyrrolo[2,3-b]pyrazin-2-yl)acrylamide]
- inhibition at 0.2 µM [1]: > 50%
- inhibition at 5 µM [2]: > 80%

Compound: C=CC(=O)Nc1cnc2c(c1)c(C)cn2Cc1ccc(C(F)(F)F)c(OC)c1 [Compound 53, N-(1-(3-methoxy-4-(trifluoromethyl)benzyl)-3-methyl-1H-pyrrolo[2,3-b]pyridin-5-yl)acrylamide]
- inhibition at 0.2 µM [1]: > 50%
- inhibition at 5 µM [2]: < 40%

Compound: C=CC(=O)Nc1cnc2c(c1)c(C)nn2-c1ccc(C(F)(F)F)c(OC)c1 [Compound 64, N-(1-(3-methoxy-4-(trifluoromethyl)phenyl)-3-methyl-1H-pyrazolo[3,4-b]pyridin-5-yl)acrylamide]
- inhibition at 0.2 µM [1]: > 50%
- inhibition at 5 µM [2]: 40 to 80%

Compound: C=CC(=O)Nc1cnc2c(c1)c(C)nn2-c1ccc(C(F)(F)F)c(O)c1 [Compound 87, N-(1-(3-hydroxy-4-(trifluoromethyl)phenyl)-3-methyl-1H-pyrazolo[3,4-b]pyridin-5-yl)acrylamide]
- inhibition at 0.2 µM [1]: < 30%
- inhibition at 5 µM [2]: 40 to 80%

Compound: CC=CC(=O)Nc1cnc2c(c1)c(C)nn2-c1ccc(C(F)(F)F)cc1 [Compound 88, N-(3-methyl-1-(4-(trifluoromethyl)phenyl)-1H-pyrazolo[3,4-b]pyridin-5-yl)but-2-enamide]
- inhibition at 0.2 µM [1]: 30 to 50%
- inhibition at 5 µM [2]: 40 to 80%

Compound: C=CC(=O)Nc1cnc2c(c1)c(C)cn2-c1ccc(C2CCCCC2)cc1 [Compound 37, N-(1-(4-cyclohexylphenyl)-3-methyl-1H-pyrrolo[2,3-b]pyridin-5-yl)acrylamide]
- inhibition at 0.2 µM [1]: < 30%
- inhibition at 5 µM [2]: > 80%

Compound: C=CC(=O)Nc1cnc2c(c1)c(C)cn2Cc1ccc(C(C)(C)C)cc1 [Compound 44, N-(1-(4-(tert-butyl)benzyl)-3-methyl-1H-pyrrolo[2,3-b]pyridin-5-yl)acrylamide]
- inhibition at 0.2 µM [1]: < 30%
- inhibition at 5 µM [2]: 40 to 80%

Compound: C=CC(=O)Nc1cnc2c(c1)c(C)nn2-c1cnn(C(F)(F)F)c1 [Compound 101, N-(3-methyl-1-(1-(trifluoromethyl)-1H-pyrazol-4-yl)-1H-pyrazolo[3,4-b]pyridin-5-yl)acrylamide]
- inhibition at 0.2 µM [1]: > 50%
- inhibition at 5 µM [2]: 40 to 80%

Compound: C=CC(=O)Nc1cnc2c(c1)c(C)cn2CCC(C)C [Compound 26, N-(1-isopentyl-3-methyl-1H-pyrrolo[2,3-b]pyridin-5-yl)acrylamide]
- inhibition at 0.2 µM [1]: 30 to 50%
- inhibition at 5 µM [2]: > 80%

Compound: C=CC(=O)Nc1ccc2c(c1)c(C)nn2Cc1ccc(C(F)(F)F)cc1 [Compound 33, N-(3-methyl-1-(4-(trifluoromethyl)benzyl)-1H-indazol-5-yl)acrylamide]
- inhibition at 0.2 µM [1]: > 50%
- inhibition at 5 µM [2]: 40 to 80%

Compound: C=CC(=O)Nc1cnc2c(c1)c(C)nn2-c1ccc(C(C)CC)cc1 (stereo not drawn) [Compound 80, N-(1-(4-(sec-butyl)phenyl)-3-methyl-1H-pyrazolo[3,4-b]pyridin-5-yl)acrylamide]
- inhibition at 0.2 µM [1]: 30 to 50%
- inhibition at 5 µM [2]: 40 to 80%

Compound: C=CC(=O)Nc1cnc2c(c1)c(C)nn2-c1ccc(C(C)(C)C)cc1 [Compound 79, N-(1-(4-(tert-butyl)phenyl)-3-methyl-1H-pyrazolo[3,4-b]pyridin-5-yl)acrylamide]
- inhibition at 0.2 µM [1]: 30 to 50%
- inhibition at 5 µM [2]: 40 to 80%

Compound: C=CS(=O)(=O)Nc1cnc2c(c1)c(C)nn2-c1ccc(C(F)(F)F)cc1 [Compound 85, N-(3-methyl-1-(4-(trifluoromethyl)phenyl)-1H-pyrazolo[3,4-b]pyridin-5-yl)ethenesulfonamide]
- inhibition at 0.2 µM [1]: > 50%
- inhibition at 5 µM [2]: > 80%
